Results: patent US9440980B2, “Remedy for diabetes” (EA Pharma Co., Ltd., priority 2007, dated 2016)

Tests used:
[1] = molecular target: T1, binding between the Gβ and the p110β (PI3-kinase β) (Homo sapiens, UniProt P42338+P62873); experiment: Binding of Gβ1γ2-Myc to PI3-kinase β (immunoprecipitation, Western blot); conditions: Compound 1 (0.1 μM) and Compound 6 (1 mM) approximately the same effect; FIG. 15
T1 construct: purchased Upstate 14-603
Procedure: 300 μl of a PI3K buffer (40 mM HEPES-Na (pH 7.4), 120 mM NaCl, 1 mM EGTA, 1 mM dithiothreitol, 1 mM β glycerophosphoric acid, 10 mM MgCl2, 0.1% BSA) was added to a 1.5-ml microtube, and to this were added 200 ng of the Gβ1γ2-Myc obtained in Example 20 (1), 160 ng of PI3-kinase β (PI3 Kinase (p110β/p85α), active, Upstate, Product No. 14-603), and a test substance. The mixture was left at room temperature for 30 minutes, to this was added 10 μl of a solution of an anti-cMyc antibody (9E10, 200 μg/ml, SantaCruz, Product No. sc-40), and the resulting mixture was left at room temperature for 2 hours. To the solution was added 25 μl of anti-mouse IgG agarose beads (American Qualex, Product No. 61060) which were washed with the same buffer, stirred at room temperature for 1 hour and centrifuged (10000 rpm, 1 minute) to remove the supernatant. Furthermore, the beads were washed with 0.5 ml of the buffer 3 times, eluted in a boiling SDS-containing buffer, and subjected to an SDS polyacrylamide electrophoresis. Then, the amounts of the p110β and the Gβ adsorbed to the beads were measured by a Western blot method using an anti-p110β antibody (SantaCruz, Product No. sc-602) and an anti-Gβ antibody (SantaCruz, Product No. sc-261).

Gβ1γ2-Myc = molecular target: T2, Gβ1γ2-Myc (Homo sapiens, UniProt P62873); experiment: Gβ binding ability using Gβ-expressing insect cell extract solution (PD10 method); conditions: binding strength Compound 1>Compound 3>Compound 6, FIG. 8
T2 construct: made in house; host or cells: Sf21 insect cells (baculovirus), unpurified Triton X-100 extract
Procedure: The PD10 method was carried out as follows. To a microtube were added 250 μl of an RBA buffer, 100 μl of an RBA buffer containing 0 or 500 μM of the unlabeled Compound 1, 100 μl of the above extract solution, and 50 μl of an RBA buffer containing 2.5 μM of the ^3H-labeled Compound 1 successively, and the resultant mixture was stirred and left at room temperature for 1 hour. The entire reaction solution (0.5 ml) was added to a PD10 column sufficiently substituted with the RBA buffer, 2 ml of the RBA buffer was passed through the PD10 column, and thereafter further eluate by 1.5 ml of the RBA buffer was collected as a high-molecular fraction containing the protein, 15 ml of a liquid scintillator was added thereto, and the amount of the ^3H-labeled Compound 1 contained in the high-molecular fraction was measured by a scintillation counter. The count of the sample added with the unlabeled Compound 1 at the final concentration of 100 μM was considered to correspond to the nonspecific binding, the difference between the nonspecific binding count and the count of the sample not added with the unlabeled Compound 1 was considered to correspond to the specific binding, and thus the amount of the binding protein contained in the extract solution was evaluated.
Using the frozen insect cell Sf21 expressing the Gβ1, Myc-Gγ2, and Gαi1-His prepared in Example 19 (8), 10^7 cells were melted and suspended in 1.3 ml of an RBA buffer containing 1% Triton X-100 (75 mM Tris-HCl, 12.5 mM MgCl2, 2 mM EDTA, pH 7.4). […]
The inhibitory activity against the binding of the ^3H-labeled Compound 1 to the Gβ1γ2-Myc was considered to correspond to the activity of the compounds for binding to the Gβ1γ2-Myc. Thus, the activity of each of Compounds 1, 3, and 6 for binding to the Gβ1γ2-Myc was measured using the above extract solution. The activity of the ^3H-labeled Compound 1 for binding to the protein contained in the extract solution was measured by the PD10 method described in Example 15 (1). […]

isolated adipocytes = experiment: Measurement of glucose uptake activity in isolated rat adipocytes (2-[14C]-deoxy-D-glucose); assay type: cell-based; conditions: Adipocyte, glucose uptake of insulin (100 nM) = 100%
Procedure: A male Wistar rat was decapitated and exsanguinated, and then a paratesticular adipose tissue was resected therefrom after laparotomy. The tissue was cut in a KRH (Krebs-Ringer HEPES: 130 mM NaCl, 4.7 mM KCl, 1.2 mM KH2PO4, 1.2 mM MgSO4, 1 mM CaCl2, 25 mM HEPES) containing a BSA (bovine serum albumin), a collagenase (type I) was added thereto, and the resultant was subjected to a digestive treatment for about 40 minutes to obtain isolated adipocytes. The buffer was replaced to remove the collagenase, and a 2% BSA/KRH solution was added thereto, whereby the adipocytes were floated again to obtain a adipocytes suspension.
The glucose uptake activity of a test substance compound was evaluated in accordance with Non-Patent Document 14: Simpson et al., Annual Review of Biochemistry, 55, 1059, (1986). Thus, 200 μl of the adipocytes suspension was dispensed into each polystyrene test tube, 100 μl of a solution containing the test substance compound was added thereto, and the test tube was shaken and incubated at 37° C. for 30 minutes. The glucose uptake activity was evaluated by measuring the amount of 2-[^14C(U)]-deoxy-D-glucose uptaken per unit time. Thus, the 2-[^14C(U)]-deoxy-D-glucose was added to the preincubated adipocytes suspension at the final concentration of 0.5 μCi/sample, and after 5 minutes, cytochalasin B was added thereto at the final concentration of 10 μM to stop the glucose uptake. Dinonyl phthalate was superposed over the solution, the resultant was centrifuged to separate the fat cells from the buffer, and the amount of the 2-[^14C(U)]-deoxy-D-glucose contained in the fat cell layer was measured by a liquid scintillation counter, whereby the uptaken glucose amount was determined. The glucose uptake of insulin (100 nM) was evaluated in the same manner and considered to be 100%, and thus the EC50 value of each compound was obtained.

T2 sequence (P62873 whole entry): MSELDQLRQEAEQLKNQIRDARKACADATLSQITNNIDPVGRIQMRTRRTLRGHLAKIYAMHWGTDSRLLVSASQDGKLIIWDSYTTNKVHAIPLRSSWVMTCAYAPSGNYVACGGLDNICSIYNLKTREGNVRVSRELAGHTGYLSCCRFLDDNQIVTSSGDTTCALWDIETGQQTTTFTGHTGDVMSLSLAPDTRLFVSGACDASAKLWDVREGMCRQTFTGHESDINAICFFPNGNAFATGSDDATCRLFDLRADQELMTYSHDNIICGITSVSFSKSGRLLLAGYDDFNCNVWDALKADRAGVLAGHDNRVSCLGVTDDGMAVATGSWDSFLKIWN
T2 sequence (P59768 with tags, fused parts or gaps partner limits assumed): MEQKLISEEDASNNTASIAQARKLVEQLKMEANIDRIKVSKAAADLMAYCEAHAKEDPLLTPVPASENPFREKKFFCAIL
T1 sequence (P42338 whole entry): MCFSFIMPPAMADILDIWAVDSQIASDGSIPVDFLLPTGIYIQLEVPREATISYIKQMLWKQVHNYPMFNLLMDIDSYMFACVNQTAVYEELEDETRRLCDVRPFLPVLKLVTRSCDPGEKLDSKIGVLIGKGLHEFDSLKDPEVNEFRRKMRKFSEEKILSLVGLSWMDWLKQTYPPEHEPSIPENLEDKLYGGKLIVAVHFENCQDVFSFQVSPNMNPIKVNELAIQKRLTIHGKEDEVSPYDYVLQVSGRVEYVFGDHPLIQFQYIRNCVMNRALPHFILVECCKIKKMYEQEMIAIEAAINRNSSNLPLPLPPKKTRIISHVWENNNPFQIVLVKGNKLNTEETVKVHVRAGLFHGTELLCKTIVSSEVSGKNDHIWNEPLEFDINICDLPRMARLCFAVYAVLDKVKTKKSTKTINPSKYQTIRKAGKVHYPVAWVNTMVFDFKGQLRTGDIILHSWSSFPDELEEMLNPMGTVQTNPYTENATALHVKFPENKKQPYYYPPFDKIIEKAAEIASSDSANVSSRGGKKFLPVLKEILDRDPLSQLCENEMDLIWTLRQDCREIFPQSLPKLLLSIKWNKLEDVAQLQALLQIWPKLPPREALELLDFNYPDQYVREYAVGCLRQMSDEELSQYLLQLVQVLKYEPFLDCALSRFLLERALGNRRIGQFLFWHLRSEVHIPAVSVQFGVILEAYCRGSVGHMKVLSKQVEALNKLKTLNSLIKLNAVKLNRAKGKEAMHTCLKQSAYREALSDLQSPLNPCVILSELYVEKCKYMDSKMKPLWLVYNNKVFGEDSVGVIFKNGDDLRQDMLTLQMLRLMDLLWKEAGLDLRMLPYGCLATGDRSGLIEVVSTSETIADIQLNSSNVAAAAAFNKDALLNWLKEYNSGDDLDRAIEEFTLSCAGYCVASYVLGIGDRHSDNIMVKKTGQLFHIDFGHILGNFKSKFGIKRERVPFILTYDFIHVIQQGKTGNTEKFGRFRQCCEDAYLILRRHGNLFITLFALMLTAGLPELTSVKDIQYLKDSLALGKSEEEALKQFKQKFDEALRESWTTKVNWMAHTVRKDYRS
T1 sequence (P27986 whole entry partner): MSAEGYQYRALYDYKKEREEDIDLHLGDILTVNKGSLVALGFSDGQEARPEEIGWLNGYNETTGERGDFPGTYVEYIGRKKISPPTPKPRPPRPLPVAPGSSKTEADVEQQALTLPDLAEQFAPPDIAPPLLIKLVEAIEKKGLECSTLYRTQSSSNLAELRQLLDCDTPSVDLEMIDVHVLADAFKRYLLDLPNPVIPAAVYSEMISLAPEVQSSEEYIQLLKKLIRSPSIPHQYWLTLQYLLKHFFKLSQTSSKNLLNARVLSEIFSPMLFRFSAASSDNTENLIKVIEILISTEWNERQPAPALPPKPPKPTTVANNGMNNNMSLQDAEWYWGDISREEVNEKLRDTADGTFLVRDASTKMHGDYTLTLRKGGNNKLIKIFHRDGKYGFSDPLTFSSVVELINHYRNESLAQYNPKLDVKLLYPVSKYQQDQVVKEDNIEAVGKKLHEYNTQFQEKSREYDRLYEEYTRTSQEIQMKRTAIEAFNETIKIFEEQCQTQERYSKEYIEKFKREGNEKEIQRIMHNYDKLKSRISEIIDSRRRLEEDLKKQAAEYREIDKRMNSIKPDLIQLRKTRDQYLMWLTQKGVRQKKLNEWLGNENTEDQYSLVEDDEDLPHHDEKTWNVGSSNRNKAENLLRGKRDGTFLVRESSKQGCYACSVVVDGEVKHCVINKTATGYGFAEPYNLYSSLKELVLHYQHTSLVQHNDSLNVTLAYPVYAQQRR
T1 sequence (P62873 whole entry): as the sequence (P62873 whole entry) above
T1 sequence (P59768 with tags, fused parts or gaps partner limits assumed): as the sequence (P59768 with tags, fused parts or gaps partner limits assumed) above

effect on the binding between the Gβ and the p110β (PI3-kinase β) [1] | binding to Gβ1γ2-Myc (inhibition of 3H-labeled Compound 1 binding) (Gβ1γ2-Myc) | EC50 (isolated adipocytes) [nM] | Compound
enhanced | could be bound to the Gβγ2-Myc | 8 | O=C1NCC2=C1[C@@H](c1cccc3ccsc13)N(C(=O)CCc1ccccn1)[C@@H]1CCCC[C@H]1N2 [Compound 1]
enhanced | could be bound to the Gβγ2-Myc | 4000 | O=C1NCC2=C1[C@@H](c1ccccc1)N(C(=O)CO)[C@@H]1CCCC[C@H]1N2 [Compound 6]
